Laboratory results published in US10233186B2, “Inhibitors of activin receptor-like kinase” (BLUEPRINT MEDICINES CORPORATION, priority 2016, dated 2019).

Columns and labels:
[1] = target: T1, ALK2 R206H (GST-tagged mutant ALK2) (Homo sapiens, UniProt Q04771, R206H); assay: ALK binding assay (LANTHASCREEN TR-FRET competitive binding, displacement of Kinase Tracer 178); conditions: ALK2 R206H, LANTHASCREEN TR-FRET competitive binding; read-out: Binding Assay (IC50)
T1 construct: purchased Carna Bioscience or ThermoFisher 09-148 or PV6232
T1 sequence (Q04771 21-509 R206H): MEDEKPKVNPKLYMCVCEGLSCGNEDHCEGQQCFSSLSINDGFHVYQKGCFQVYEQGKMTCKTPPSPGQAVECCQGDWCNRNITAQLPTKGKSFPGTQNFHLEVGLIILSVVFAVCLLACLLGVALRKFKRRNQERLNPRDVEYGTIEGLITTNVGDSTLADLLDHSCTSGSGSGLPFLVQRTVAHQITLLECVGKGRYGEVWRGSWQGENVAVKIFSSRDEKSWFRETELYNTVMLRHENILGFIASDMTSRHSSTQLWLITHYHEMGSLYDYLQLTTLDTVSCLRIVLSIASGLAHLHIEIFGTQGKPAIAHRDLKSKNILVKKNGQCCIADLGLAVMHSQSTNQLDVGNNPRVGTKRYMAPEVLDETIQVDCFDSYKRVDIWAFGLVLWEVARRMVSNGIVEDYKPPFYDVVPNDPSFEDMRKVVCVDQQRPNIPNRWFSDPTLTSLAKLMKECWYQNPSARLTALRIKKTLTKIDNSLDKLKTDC

[2] = target: T2, human ALK2 R206H (Homo sapiens, UniProt Q04771, R206H); assay: Cell-based ALK2-R206H cell activity assay (Smad1-Ser463/Ser465 phosphorylation by AlphaLISA in HEK293-ALK2-R206H cells); conditions: read-out: Cell Line (Cell Assay IC50)
T2 construct: expressed in transfected cells; host or cells: HEK293 (ATCC CRL1573), lentivirus transduction, blasticidin selection
T2 sequence (Q04771 21-509 R206H): T1 sequence (Q04771 21-509 R206H)
In short: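 Stable HEK293 cells expressing C-terminally FLAG-tagged human ALK2 R206H (lentiviral, blasticidin-selected) were treated with compounds in 10-point, 3-fold dilutions from 10 μM or 1 μM top, in duplicate. Smad1 Ser463/Ser465 phosphorylation was read by AlphaLISA.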

Row | Compound | IC50 [1] [nM] | IC50 [2] [nM]
1 | CCOC1(c2ccc(-c3cc4c(N5CCN(C(=O)OC6(C)COC6)CC5)ccnn4c3)nc2)CCN(C(C)C)CC1 [Compound 878] | < 10 | < 100
2 | CCOC1(c2ccc(-c3cc4c(N5CCN(C(=O)C6CC6)CC5)ccnn4c3)nc2)CCN(C(C)C)CC1 [Compound 662] | < 10 | < 100
3 | COC1(c2ccc(-c3cc4c(N5CCN(C(=O)NC(C)C)CC5)ccnn4c3)c(C#N)c2)CCN(C(C)C)CC1 [Compound 852] | < 10 | < 100
4 | CCOC(=O)N1CCN(c2ccnn3cc(-c4ccc(C5(OCC)CCN(C6COC6)CC5)cn4)cc23)CC1 [Compound 845] | < 10 | < 100
5 | COC[C@H](C)N1CCC(OC)(c2ccc(-c3cc4c(N5CCN(C(=O)NC(C)C)CC5)ccnn4c3)nc2)CC1 [Compound 736] | < 10 | < 100
6 | CO[C@]1(c2ccc(-c3cc4c(N5CCN(C(=O)NC(C)C)CC5)ccnn4c3)cc2)CCN(C(C)C)C1 [Compound 637] | < 10 | < 100
7 | O=C(C1CC1)N1CCN(c2ccnn3cc(-c4ccc(N5CCN6CCCCC6C5)cc4)cc23)CC1 (stereo not drawn) [Compound 307] | < 10 | 100 to 500
8 | O=C(OC1COC1)N1CCN(c2ccnn3cc(-c4ccc(C5CCCN5)cn4)cc23)CC1 (stereo not drawn) [Compound 475] | < 10 | < 100
9 | CCNC(=O)N1CCN(c2ccnn3cc(-c4ccc(C5(OCC)CCN(C(C)C)CC5)cc4)cc23)CC1 [Compound 675] | < 10 | < 100
10 | CC(C)N1CCC[C@H](c2ccc(-c3cc4c(N5CCN(C(=O)NCCC#N)CC5)ccnn4c3)cc2)C1 [Compound 618] | < 10 | < 100
11 | COC1(c2ccc(-c3cc4c(N5CCN(C(=O)[C@H]6C[C@H](C#N)C6)CC5)ccnn4c3)nc2)CCN(C(C)C)CC1 [Compound 731] | < 10 | < 100
12 | O=C(C1CC1)N1CCN(c2ccnn3cc(-c4ccc(N5CC6(CNC6)C5)cc4)cc23)CC1 [Compound 146] | < 10 | 100 to 500
13 | CCOC1(c2ccc(-c3cc4c(N5CCN(C(=O)OCC(F)F)CC5)ccnn4c3)nc2)CCN(C(C)C)CC1 [Compound 872] | < 10 | < 100
14 | CC(C)N1CCC(c2ccc(-c3cc4c(N5CCN(C(=O)[C@H]6CC[C@H](C#N)CC6)CC5)ccnn4c3)nc2)CC1 [Compound 437] | < 10 | < 100
15 | CCOC(=O)N1CCN(c2ccnn3cc(-c4ccc([C@]5(OC)CCN(C(C)C)C5)cc4)cc23)CC1 [Compound 604] | < 10 | < 100
16 | COC1(c2ccc(-c3cc4c(N5CCN(C(=O)NC(C)C)CC5)ccnn4c3)cc2)CCN([C@@H](C)COC(F)F)CC1 [Compound 892] | < 10 | < 100
17 | CO[C@]1(c2ccc(-c3cc4c(N5CCN(C(=O)NC(C)C)CC5)ccnn4c3)cc2F)CCCN(C(C)C)C1 [Compound 723] | < 10 | < 100
18 | O=C(C1CC1)N1CCN(c2ccnn3cc(-c4ccc([C@H]5CNCCO5)cc4)cc23)CC1 [Compound 130, (S)-cyclopropyl(4-(6-(4-(morpholin-2-yl)phenyl)pyrrolo[1,2-b]pyridazin-4-yl)piperazin-1-yl)methanone] | < 10 | 100 to 500
19 | CCOC(=O)N1CCN(c2ccnn3cc(-c4ccc([C@@]5(F)CCCNC5)cc4)cc23)CC1 [Compound 480] | < 10 | < 100
20 | CCN1CCN(c2ccc(-c3cc4c(N5CCN(C(=O)C6CC6)CC5)ccnn4c3)nc2)CC1 [Compound 222] | < 10 | < 100
21 | CC(C)N1CCC(c2ccc(-c3cc4c(N5CCN(C(=O)OC6COC6)CC5)ccnn4c3)cc2)CC1 [Compound 629] | < 10 | < 100
22 | O=C(C1CC1)N1CCN(c2ccnn3cc(-c4ccc(N5CCN(CC(F)F)CC5)cc4)cc23)CC1 [Compound 359] | < 10 | > 500

Further lines, results first:

Row | IC50 [1] [nM] | IC50 [2] [nM] | Compound
23 | < 10 | < 100 | CCNC(=O)N1CCN(c2ccnn3cc(-c4ccc([C@H]5CCCN(C(C)C)C5)cn4)cc23)CC1 [Compound 539]
24 | < 10 | 100 to 500 | CCN1CCC(c2ccc(-c3cc4c(N5CCN(C(=O)C6CC6)[C@H](C)C5)ccnn4c3)cc2)CC1 [Compound 252]
25 | < 10 | < 100 | CCOC1(c2ccc(-c3cc4c(N5CCN(C(=O)OC6COC6)CC5)ccnn4c3)nc2)CCNCC1 [Compound 647]
26 | < 10 | 100 to 500 | CC(C)N1CCC(c2ccc(-c3cc4c(N5CCN(C(=O)Nc6ccccc6F)CC5)ccnn4c3)cc2)CC1 [Compound 851]
27 | < 10 | < 100 | CCOC(=O)N1CCN(c2ccnn3cc(-c4ccc([C@@]5(F)CCCN(C(C)C)C5)cc4)cc23)CC1 [Compound 611]
28 | < 10 | < 100 | [2H]C([2H])([2H])C([2H])([2H])OC(=O)N1CCN(c2ccnn3cc(-c4ccc([C@@]5(OCC)CCCNC5)cn4)cc23)CC1 [Compound 793]
29 | < 10 | < 100 | CCNC(=O)N1CCN(c2ccnn3cc(-c4ccc([C@H]5CCCN5C(C)C)nc4)cc23)CC1 [Compound 497]
30 | < 10 | < 100 | N#C[C@@H]1C[C@H]1C(=O)N1CCN(c2ccnn3cc(-c4ccc([C@@]5(F)CCCNC5)cc4)cc23)CC1 [Compound 514]
31 | < 10 | < 100 | COC1(c2ccc(-c3cc4c(N5CCN(C(=O)OC6COC6)CC5)ccnn4c3)nc2)CCNCC1 [Compound 609]
32 | < 10 | < 100 | CO[C@@]1(c2ccc(-c3cc4c(N5CCN(C(=O)[C@H]6C[C@H](C#N)C6)CC5)ccnn4c3)cc2)CCCNC1 [Compound 809]
33 | < 10 | < 100 | CCOC(=O)N1CCN(c2ccnn3cc(-c4ccc(C5COCCN5)cc4)cc23)CC1 (stereo not drawn) [Compound 468]
34 | < 10 | < 100 | CCOC(=O)N1CCN(c2ccnn3cc(-c4ccc([C@]5(F)CCCN(C(C)C)C5)cn4)cc23)CC1 [Compound 613]
35 | < 10 | < 100 | CC(C)N1CCC(c2ccc(-c3cc4c(N5CCN(C(=O)NC6CCC6)CC5)ccnn4c3)cc2)CC1 [Compound 380]
36 | < 10 | 100 to 500 | O=C(C1CC1)N1CCN(c2ccnn3cc(-c4ccc(C5CNC5)cc4)cc23)CC1 [Compound 102]
37 | < 10 | < 100 | CC(C)N1CCN(C)[C@](C)(c2ccc(-c3cc4c(N5CCN(C(=O)C6CC6)CC5)ccnn4c3)cc2)C1 [Compound 619]
38 | < 10 | < 100 | CC(C)N1CCC[C@](F)(c2ccc(-c3cc4c(N5CCN(C(=O)OC6COC6)CC5)ccnn4c3)nc2)C1 [Compound 696]
39 | < 10 | 100 to 500 | O=C(C1CC1)N1CCN(c2ccnn3cc(-c4ccc(C5CCNCC5(F)F)cc4)cc23)CC1 (stereo not drawn) [Compound 238]
40 | < 10 | < 100 | N#C[C@@H]1C[C@H]1C(=O)N1CCN(c2ccnn3cc(-c4ccc([C@]5(F)CCCNC5)cc4)cc23)CC1 [Compound 512]
41 | < 10 | 100 to 500 | NC1(c2ccc(-c3cc4c(N5CCN(C(=O)C6CC6)CC5)ccnn4c3)cc2)COC1 [Compound 755]
42 | < 10 | 100 to 500 | O=C([C@@H]1C[C@H]1F)N1CCN(c2ccnn3cc(-c4ccc(N5CCNCC5)nc4)cc23)CC1 [Compound 186]
